# Experimental data published in patent publication US6153624A, “Pyrrolidine and piperidine derivatives and treatment of neurodegenerative disorders” (Hoffman-LaRoche Inc., priority 1998, dated 2000).
# System: NMDA receptors
# Experiment: not given
# Conditions: Journ. of Pharmacology, Vol. 283, No.8, 1285-1297; cited from earlier work
row,Compound,demonstration of NMDA receptor block (in words)
1,"C[C@@H](CN1CCC(Cc2ccccc2)CC1)[C@@H](O)c1ccc(O)cc1 [RO 25-6981, [R-(R*,S*)]-a-(4-Hydroxy-phenyl)-b-methyl-4-(phenyl-methyl)-1-piperidine propanol]","highly selective, activity-dependent blocker of NMDA receptors"

# Target: T1, N-methyl-D-aspartate (NMDA) receptor containing the NR2B subunit (Rattus norvegicus, UniProt P35439+Q00960)
# T1 construct: Membranes were prepared by homogenization of the whole brain minus cerebellum and medulla oblongata; from tissue; host or cells: rat whole brain minus cerebellum and medulla oblongata, membranes
# Experiment: 3H-Ro 25-6981 binding (displacement) to rat brain membranes
# Design: species or system rat (male Fullinsdorf albino)
# Conditions: 3H-Ro 25-6981 5 nM, 2 hours at 4° C., pH 7.4, rat whole brain minus cerebellum and medulla oblongata
# Excerpt: In the following test RO 25-6981 ([R-(R*,S*)]-a-(4-Hydroxy-phenyl)-b-methyl-4-(phenyl-methyl)-1-piperidine propanol)has been used as a high and selective blocker of N-methyl-D-aspartate (NMDA) receptor containing the NR2B subjunit. The interaction of RO 25-6981 with NMDA receptors is characterized by the described test in vitro.
# 3H-Ro 25-6981 binding (Ro 25-6981 is [R-(R*,S*)]-a-(4-Hydroxy-phenyl)-b-methyl-4-(phenyl-methyl)-1-piperidine propanol)
# Male Fullinsdorf albino rats weighing between 150-200 g were used. Membranes were prepared by homogenization of the whole brain minus cerebellum and medulla oblongata with a Polytron (10.000 rpm, 30 seconds), in 25 volumes of a cold Tris-HCl 50 mM, EDTA 10 mM, pH 7.1 buffer. The homogenate was centrifuged at 48.000 g for 10 minutes at 4° C. The pellet was resuspended using the Polytron in the same volume of buffer and the homogenate was incubated at 37° C. for 10 minutes. After centrifugation the pellet was homogenized in the same buffer and frozen at -80° C. for at least 16 hours but not more than 10 days. For the binding assay the homogenate was thawed at 37° C., centrifuged and the pellet was washed three times as above in a Tris-HCl 5 mM, pH 7.4 cold buffer. The final pellet was resuspended in the same buffer and used at a final concentration of 200 μg of protein/ml.
# 3H-Ro 25-6981 binding experiments were performed using a Tris-HCl 50 mM, pH 7.4 buffer. For displacement experiments 5 nM of 3H-Ro 25-6981 were used and non specific binding was measured using 10 μm of tetrahydroisoquinoline and usually it accounts for 10% of the total. The incubation time was 2 hours at 4° C. and the assay was stopped by filtration on Whatmann GF/B glass fiber filters (Unifilter-96, Packard, Zurich, Switzerland). The filters were washed 5 times with cold buffer. The radioactivity on the filter was counted on a Packard Top-count microplate scintillation counter after addition of […] of microscint 40 (Canberra Packard S. A., Zurich, Switzerland).
# The effects of compounds were measured using a minimum of 8 concentrations and repeated at least once. The pooled normalized values were analyzed using a non-linear regression calculation program which provide IC50 with their relative upper and lower 95% confidence limits (RS1, BBN, USA).
# T1 sequence (Q00960 27-1482, other chains not shown): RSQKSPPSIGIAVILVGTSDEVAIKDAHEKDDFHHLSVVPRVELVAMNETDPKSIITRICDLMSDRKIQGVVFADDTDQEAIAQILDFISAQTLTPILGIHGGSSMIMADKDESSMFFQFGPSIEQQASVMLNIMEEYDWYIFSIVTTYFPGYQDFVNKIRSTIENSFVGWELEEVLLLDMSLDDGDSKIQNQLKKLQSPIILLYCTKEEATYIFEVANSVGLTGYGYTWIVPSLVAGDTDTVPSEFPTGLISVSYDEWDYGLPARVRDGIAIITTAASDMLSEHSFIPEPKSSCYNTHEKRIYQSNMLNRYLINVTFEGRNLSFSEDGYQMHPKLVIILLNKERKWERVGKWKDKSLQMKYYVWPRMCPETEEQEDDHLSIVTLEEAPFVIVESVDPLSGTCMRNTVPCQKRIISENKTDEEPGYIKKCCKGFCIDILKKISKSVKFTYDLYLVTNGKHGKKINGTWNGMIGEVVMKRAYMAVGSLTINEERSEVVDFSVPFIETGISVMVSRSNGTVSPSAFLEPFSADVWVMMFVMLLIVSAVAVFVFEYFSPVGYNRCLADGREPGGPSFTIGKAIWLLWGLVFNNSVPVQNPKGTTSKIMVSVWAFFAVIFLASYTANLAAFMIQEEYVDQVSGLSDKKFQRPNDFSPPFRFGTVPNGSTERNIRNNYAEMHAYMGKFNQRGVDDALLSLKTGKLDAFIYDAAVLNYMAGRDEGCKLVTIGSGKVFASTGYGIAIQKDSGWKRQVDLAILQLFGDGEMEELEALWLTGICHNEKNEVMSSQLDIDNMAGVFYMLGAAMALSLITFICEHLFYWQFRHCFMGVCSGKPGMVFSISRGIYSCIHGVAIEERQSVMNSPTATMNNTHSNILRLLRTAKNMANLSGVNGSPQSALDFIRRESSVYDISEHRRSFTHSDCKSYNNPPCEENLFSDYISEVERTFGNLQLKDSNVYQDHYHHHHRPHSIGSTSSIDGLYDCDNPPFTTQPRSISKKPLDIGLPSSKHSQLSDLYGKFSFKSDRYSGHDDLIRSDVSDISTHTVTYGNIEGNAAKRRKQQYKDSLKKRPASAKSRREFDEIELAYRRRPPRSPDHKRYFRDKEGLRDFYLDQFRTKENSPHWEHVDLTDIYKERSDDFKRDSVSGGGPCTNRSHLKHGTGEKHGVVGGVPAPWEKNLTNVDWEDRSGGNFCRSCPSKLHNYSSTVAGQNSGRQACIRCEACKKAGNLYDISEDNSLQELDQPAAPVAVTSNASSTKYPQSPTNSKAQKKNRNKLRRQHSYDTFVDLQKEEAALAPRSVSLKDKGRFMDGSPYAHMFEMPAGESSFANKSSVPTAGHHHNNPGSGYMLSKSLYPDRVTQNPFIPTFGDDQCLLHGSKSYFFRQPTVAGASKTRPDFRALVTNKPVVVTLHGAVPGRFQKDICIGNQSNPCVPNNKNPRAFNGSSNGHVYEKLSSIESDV
row,Compound,IC50 [µM]
1,"Oc1ccc([C@@H](O)[C@@H]2CC[C@@H](CCc3ccccc3)N2)cc1 (racemic) [Example 1, 4-[(RS)-hydroxy-[(2SR,5RS)-5-phenethyl-pyrrolidin-2-yl]-methyl]-phenol]",0.02
2,COc1ccc(CC[C@@H]2CCC[C@H](C(O)c3ccc(O)cc3)N2)cc1 (stereo partly shown) [Example 3],0.03
3,"Oc1ccc([C@H]2OCN3[C@H](CCc4ccccc4)CC[C@@H]23)cc1 (racemic) [Example 37, (1RS ,5RS,7aSR)-4-(5-phenethyl-tetrahydro-pyrrolo[1,2-c]oxazol-1-yl)-phenol]",0.05
4,"Oc1ccc([C@H]2OCCN3[C@@H](CCc4ccccc4)CC[C@H]23)cc1 (racemic) [Example 35, (1RS,6SR,8aRS)-4-(6-phenethyl-hexahydro-pyrrolo[2,1-c][1,4]oxazin-1-yl)-phenol]",0.09
5,"COc1ccc(CCC2CCC(C(=O)c3ccc(O)cc3)N2)cc1 (racemic) [Example 7, Mixture of (2RS,5RS)-- and (2RS,5SR)-(4-hydroxy-phenyl)-[5-[2-(4-methoxy-phenyl)-ethyl]-pyrrolidin-2-yl]-methanone]",0.07
6,"Oc1ccc([C@@H](O)[C@@H]2CC[C@@H](CCc3ccccc3)N2)cc1O (racemic) [Example 5, 4-[(RS)-hydroxy-[(2SR,5RS)-5-phenethyl-pyrrolidin-2-yl]-methyl]-benzene-1,2-diol]",0.04
7,"COc1ccc(CC[C@H]2CC[C@@H]([C@H](O)c3ccc(O)c(F)c3)N2)cc1 (racemic) [Example 2, 2-fluoro-4-[(RS)-hydroxy-[(2SR,5SR)-5-[2-(4-methoxy-phenyl)-ethyl]-pyrrolidin-2-yl]-methyl]-phenol]",0.03
8,"COc1ccc(CC[C@@H]2CC[C@H](Cc3ccc(O)cc3)N2)cc1 (racemic) [Example 4, (2RS,5RS)-4-[5-[2-(4-methoxy-phenyl)-ethyl]-pyrrolidin-2-ylmethyl]-phenol]",0.04
9,"COc1ccc(CC[C@@H]2CCC[C@H](Cc3ccc(O)cc3)N2)cc1 (racemic) [Example 6, (2RS,6SR)-4-[6-[2-(4-methoxy-phenyl)-ethyl]-piperidin-2-ylmethyl]-phenol]",0.045
